The results in this text go back to ChEMBL document CHEMBL5614461, “Design, synthesis and biological evaluation of indazole derivatives as VEGFR-2 kinase inhibitors with anti-angiogenic properties” (Eur J Med Chem, 2024).

Molecules are shown by their SMILES.

Series [1] in a line: in vivo. Conditions: male, Sprague-Dawley, rat, iv, 1 mg/kg.
Series [2] can be described thus: in vivo. Conditions: male, Sprague-Dawley, rat, iv, 1 mg/kg. This is another data set of the same source.
Series [3] can be described thus: in vivo. As to conditions: male, Sprague-Dawley, rat, iv, 1 mg/kg. The source holds these as a separate data set.
Series [4] is described as follows: in vivo. As to conditions: male, Sprague-Dawley, rat, iv, 1 mg/kg. This is another data set of the same source.
Series [5] can be described thus: in vivo. As to conditions: male, Sprague-Dawley, rat, po, 10 mg/kg.
Series [6] in a line: in vivo. As to conditions: male, Sprague-Dawley, rat, po, 10 mg/kg. This is another data set of the same source.
A short description of series [7]: in vivo. Conditions: male, Sprague-Dawley, rat, po, 10 mg/kg. This is another data set of the same source.
Series [8] in a line: in vivo. Conditions: male, Sprague-Dawley, rat, po, 10 mg/kg. This is another data set of the same source.

Consider `O=C(Cc1ccccc1F)Nc1cccc(Sc2ccc3c(/C=C/c4ccccn4)n[nH]c3c2)c1`, for which the AUC(0-t) at 24 h in “in vivo [1]” was 1590 ng·h/mL; in the series “in vivo [5]”, 1670 ng·h/mL. For the same molecule, the mean residence time MRT last at 24 h is 1.62 h in the series “in vivo [2]” and 2.73 h in the series “in vivo [6]”. The Cmax at 24 h was 1470 ng/mL in the series “in vivo [3]” and 484 ng/mL in the series “in vivo [7]”. Moreover, the Tmax at 24 h is 1.8 min in the series “in vivo [4]” and 1.67 h in “in vivo [8]”.
